From US10150945B2, “Cell culture device and manufacturing method therof” (JNC CORPORATION, priority 2004, dated 2018)

Test system: A549 cells (human lung cancer cells)
Experimental: The cytotoxicity of ε-polylysines, the coating material used in the invention, to A549 cells (human lung cancer cells, obtained from ATCC) was evaluated. The cytotoxicity to ε-polylysine hydrochloride (Chisso Corp.) was compared with that to α-polylysine hydrobromide (Wako Pure Chemical, average molecular weight 15,000).
A549 cells were seeded on a 96-well microplate at a density of 1×10^4 cells/well. After culturing overnight at 37° C. under 5% CO2 using DME medium (containing 10% bovine embryonic serum), the medium was removed with an aspirator, and 40 μL each of fresh medium 1.25 times more concentrated as standard was added to each well. Finally 10 μL each of a polylysine salt solution that would eventually attain the specified concentration, and cultured at 37° C. for 3 hours.
After the 3-hour culture, the medium was removed again by an aspirator, 100 μL/well of fresh medium was added, and culture continued for 46 hours. The medium was still once more replaced by 110 μL of fresh medium, 10 μL each of Cell Counting Kit-8 (Dojindo Laboratories) was added and continued to be cultured for 2 hours at 37° C. for color reaction. A plate reader (Thermo Labsystems Multiskan Ascent BIF) was used to determine the absorbance at 450 nm (with 650 nm as a reference) and calculate the viability of the cells.

α-polylysine hydrobromide
viability of the cells (FIG. 5): no difference
